Reference: patent publication US9458505B2, “Diagnosis of cowden and cowden-like syndrome by detection of decreased killin expression” (The Cleveland Clinic Foundation, priority 2011, dated 2016)

Experiments:
KILLIN expression = assay: Quantitative RT-PCR of KILLIN expression in KILLIN-methylated patient lymphoblastoid cell lines after demethylation and/or histone deacetylase inhibition treatment; format: cell-based, human; conditions: pooled result for decitabine and/or TSA; for patient cell lines in which KILLIN expression was restored: 7 of the 8 patient lymphoblastoid cell lines, decitabine 0.5 μM and/or TSA 200 nM; for KILLIN expression increase following exposure to decitabine and/or TSA: patient lymphoblastoid cell lines, decitabine 0.5 μM 96 hours and/or TSA 200 nM 48 hours, normalized to untreated counterpart set as 1, 95% confidence interval 1.4-18.1
Protocol: (§1) The quantitative reverse transcription PCRs were performed as previously described. Bennett et al., Cancer Res.; 67(10): 4657-4664 (2007). The study population included four controls and eight patients that were selected based on confirmed methylation status by bisulfite sequencing analysis and representation of the Cowden syndrome and Cowden-like syndrome condition.
(§2) The study population included eight patients that were selected based on confirmed methylation status by bisulfite sequencing analysis and representation of Cowden syndrome and Cowden-like syndrome condition. Demethylation treatment was performed with a cytosine analog, 5-aza-2′deoxycytidine (decitabine; Sigma), for 96 hours at 0.5 μM concentration with approximately 40% confluent suspension lymphoblastoid cells. Inhibition of histone deacetylation was performed with 200 nM concentration of Trichostatin A (TSA; Sigma) with approximately 40% confluent suspension lymphoblastoid cells for 48 hours, with or without 0.5 μM decitabine. The drug was changed daily, and the cells were collected for RNA isolation.

PTEN expression = assay: Quantitative RT-PCR of PTEN expression in KILLIN-methylated patient lymphoblastoid cell lines after demethylation and/or histone deacetylase inhibition treatment; format: cell-based, human; conditions: seven of the eight patient lymphoblastoid cell lines; decitabine 0.5 μM and/or TSA 200 nM; pooled result for demethylation and/or inhibition of histone deacetylation
Protocol: as §1, §2

SMILES | patient cell lines in which KILLIN expression was restored (KILLIN expression) [%] | KILLIN expression increase following exposure to decitabine and/or TSA (KILLIN expression) [fold] | patient cell lines with significant decrease in PTEN expression (PTEN expression) [%]
Nc1ncn([C@H]2C[C@H](O)[C@@H](CO)O2)c(=O)n1 [decitabine, 5-aza-2′deoxycytidine] | 88 | 4.88 | 88
CC(/C=C/C(=O)NO)=C\[C@@H](C)C(=O)c1ccc(N(C)C)cc1 [TSA, Trichostatin A] | 88 | 4.88 | 88
